Test results taken from PubChem BioAssay AID1918946 (Molecular Pharmacology Branch, DTP, NCI, 2023).
Values joined by “and” are separate entries in the source; they are usually repeats but may differ in a detail not shown here. Equal entries are not always repeated. Blank lines part the entries; values can stand above or below the compound they belong to.

Test system: 885512-296-R-J2-PDC complex spheroid viability
Assay: Anticancer human tumor 885512-296-R-J2-PDC patient-derived breast carcinoma cell line growth inhibition
Details: for viability, T/C: stronger effect = lower value
Source text: Multicellular complex tumor spheroid response to LSD1 Inhibitor Iadademstat in combination with a variety of drugs and investigational agents in selected tumor cell lines
The current study was undertaken to assess response to LSD1 inhibitors in combination with standard-of-care drugs and investigational agents in solid tumor complex spheroid models as well as in the K-562 leukemia. Complex spheroids include a stromal component modeled by human endothelial cells (HUVEC) and fibroblasts modeled by human mesenchymal stem cells (MSCs). The concentration ranges selected for each drug and investigational agent were based upon clinically achievable concentrations if the clinical Cmax of the agent was known.
Compounds. The drugs and investigational agents used in this study are listed on Table 1. All of the agents used, including staurosporine (NSC755774) and gemcitabine (NSC613327), were obtained from the Developmental Therapeutics Program, NCI. FDA-approved anticancer drugs are available from the NCI at http://dtp.nci.nih.gov/branches/dscb/oncology_drugset_explanation.html. Drugs and investigational agents were >95% pure by proton nuclear magnetic resonance (NMR) and liquid chromatography/mass spectrometry (LC/MS). Stock solutions were prepared at 400x in DMSO, stored at -70 degrees C, and diluted in fresh medium prior to their use. The final concentration of DMSO in cell culture wells never exceeded 0.25% (v/v). The FDA-approved anticancer drug set is available from the Developmental Therapeutics Program at https://dtp.cancer.gov/organization/dscb/obtaining/available_plates.htm. All drugs and investigational agents were tested over a range starting from a high concentration at or near the clinical Cmax and decreasing in half-log increments. If the clinical Cmax for an agent had not been determined, the highest concentration tested was 10 microM.
Cell Lines. The patient-derived cancer cell (PDC) lines: 292921-168-R-J2-PDC, K24384-001-R-PDC, and 521955-158-R2-J5-PDC pancreatic carcinomas, 556581-035-R-J1 ovarian carcinoma, 324938-238-R-J1-PDC, 855422-203-R-J1-PDC and 883617-216-R-J1-PDC urothelial bladder carcinomas, 743489-274-T-PDC renal cell carcinoma, 138582-R-J1 Merkel cell tumor, K60290-347-R-J1 and K57222-313-R-J1-PDC glioblastomas, 653999-131-R-J2-PDC, LG0703-F948-PDC, and 349418-098-R-PDC non-small cell lung carcinomas, 885512-296-R-J2-PDC, 171881-019-R-J1-PDC breast carcinomas and 186277-243-T-J2-PDC and 233499-124-R-J2-PDC colon carcinomas were obtained from the NCI Patient-Derived Models Repository (PDMR, https://pdmr.cancer.gov). The established cell lines NCI/ADR-RES (RRID:CVCL_14520 and OVCAR-5 (RRID:CVCL_1628) ovarian carcinomas, 786-O (RRID:CVCL_1051) and A498 (RRID:CVCL_A498) renal cell carcinoma, NCI-H211 (ATCC, cat. CRL-5824; RRID:CVCL_1529), NCI-H196 (ATCC, cat. CRL-5823, RRID:CVCL_1509), SW 1271 (ATCC, cat. CRL-2177, RRID:CVCL_1716) and NCI-H1876 (ATCC, cat. CRL-5902, RRID:CVCL_1503) small cell lung carcinomas, MDA-MB-231 (RRID:CVCL_0062) and MDA-MB-468 (RRID:CVCL_0419)breast carcinomas (10-12). Pooled donor human umbilical vein endothelial cells (HUVEC, Lonza, cat. CC-2519) and human mesenchymal stem cells (hMSC, Lonza, cat. PT-2501) were purchased from Lonza (Walkersville, MD).
Cell Culture. All cells were maintained in an incubator at 37 degrees C and 5% CO2 with 95% humidity. The PDC lines were cultured according to standard operating procedures established by the NCI PDMR (https://pdmr.cancer.gov). Briefly all PDCs were thawed and cultured in Matrigel-coated flasks prepared with a working solution of 1X Ham's F-12 nutrient mix, without supplementation (Invitrogen, Waltham, MA, cat. 11765054), 100 U/mL penicillin-streptomycin (Invitrogen, cat. 15140122), and 2.5% Matrigel (Corning Inc., Corning, NY, cat. 354248) for the first three passages. […]

[1] = curve of first compound, second compound 0.1 µM
[2] = curve of first compound, second compound 0.316 µM
[3] = curve of first compound, second compound 1 µM
[4] = curve of first compound, second compound 3.16 µM
[5] = curve of first compound, second compound 10 µM
[6] = second compound 0.1 µM, first compound 0.0316 µM
[7] = second compound 0.1 µM, first compound 0.1 µM
[8] = second compound 0.1 µM, first compound 0.316 µM
[9] = second compound 0.1 µM, first compound 1 µM
[10] = second compound 0.1 µM, first compound 3.16 µM
[11] = second compound 0.1 µM, first compound 10 µM
[12] = second compound 0.316 µM, first compound 0.0316 µM
[13] = second compound 0.316 µM, first compound 0.1 µM
[14] = second compound 0.316 µM, first compound 0.316 µM
[15] = second compound 0.316 µM, first compound 1 µM
[16] = second compound 0.316 µM, first compound 3.16 µM
[17] = second compound 0.316 µM, first compound 10 µM
[18] = second compound 1 µM, first compound 0.0316 µM
[19] = second compound 1 µM, first compound 0.1 µM
[20] = second compound 1 µM, first compound 0.316 µM
[21] = second compound 1 µM, first compound 1 µM
[22] = second compound 1 µM, first compound 3.16 µM
[23] = second compound 1 µM, first compound 10 µM
[24] = second compound 3.16 µM, first compound 0.0316 µM
[25] = second compound 3.16 µM, first compound 0.1 µM
[26] = second compound 3.16 µM, first compound 0.316 µM
[27] = second compound 3.16 µM, first compound 1 µM
[28] = second compound 3.16 µM, first compound 3.16 µM
[29] = second compound 3.16 µM, first compound 10 µM
[30] = second compound 10 µM, first compound 0.0316 µM
[31] = second compound 10 µM, first compound 0.1 µM
[32] = second compound 10 µM, first compound 0.316 µM
[33] = second compound 10 µM, first compound 1 µM
[34] = second compound 10 µM, first compound 3.16 µM
[35] = second compound 10 µM, first compound 10 µM
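Also: spheroids exposed to agents for 7 days before viability read.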

IC50 (curve of compound): 5.39 nM and < 3.16 nM
Structure (SMILES): COc1cc(Nc2ncc3c(n2)-c2ccc(Cl)cc2C(c2c(F)cccc2OC)=NC3)ccc1C(=O)O
viability, T/C (compound 0.00316 µM): 63.8% and 24.6%
viability, T/C (compound 0.01 µM): 32.3% and 28.3%
viability, T/C (compound 0.0316 µM): 23% and 22.3%
viability, T/C (compound 0.1 µM): 31.3% and 21%
viability, T/C (compound 0.316 µM): 14.5% and 18.3%
viability, T/C (compound 1 µM): 12% and 14.3%

Structure (SMILES): CC(C)c1c(-c2ccccc2)nc2c(C#N)c[nH]n2c1=O + NC1CCC(NC2CC2c2ccccc2)CC1
IC50 [1]: > 10000 nM
IC50 [2]: > 10000 nM
IC50 [3]: > 10000 nM
IC50 [4]: > 10000 nM
IC50 [5]: > 10000 nM
viability, T/C [6]: 121%
viability, T/C [7]: 123%
viability, T/C [8]: 137%
viability, T/C [9]: 128%
viability, T/C [10]: 116%
viability, T/C [11]: 119%
viability, T/C [12]: 133%
viability, T/C [13]: 126%
viability, T/C [14]: 137%
viability, T/C [15]: 131%
viability, T/C [16]: 118%
viability, T/C [17]: 113%
viability, T/C [18]: 135%
viability, T/C [19]: 114%
viability, T/C [20]: 129%
viability, T/C [21]: 123%
viability, T/C [22]: 148%
viability, T/C [23]: 110%
viability, T/C [24]: 111%
viability, T/C [25]: 122%
viability, T/C [26]: 120%
viability, T/C [27]: 145%
viability, T/C [28]: 115%
viability, T/C [29]: 118%
viability, T/C [30]: 99.3%
viability, T/C [31]: 85.5%
viability, T/C [32]: 97.2%
viability, T/C [33]: 109%
viability, T/C [34]: 104%
viability, T/C [35]: 114%

Structure (SMILES): CC(C)c1c(-c2ccccc2)nc2c(C#N)c[nH]n2c1=O + NC1CC1c1ccc(-c2cccc(O)c2)cc1
IC50 [1]: > 10000 nM
IC50 [2]: > 10000 nM
IC50 [3]: > 10000 nM
IC50 [4]: > 10000 nM
IC50 [5]: 6760 nM
viability, T/C [6]: 120%
viability, T/C [7]: 128%
viability, T/C [8]: 127%
viability, T/C [9]: 118%
viability, T/C [10]: 119%
viability, T/C [11]: 84.8%
viability, T/C [12]: 140%
viability, T/C [13]: 124%
viability, T/C [14]: 128%
viability, T/C [15]: 128%
viability, T/C [16]: 137%
viability, T/C [17]: 87.4%
viability, T/C [18]: 132%
viability, T/C [19]: 121%
viability, T/C [20]: 118%
viability, T/C [21]: 118%
viability, T/C [22]: 125%
viability, T/C [23]: 74.9%
viability, T/C [24]: 138%
viability, T/C [25]: 131%
viability, T/C [26]: 118%
viability, T/C [27]: 108%
viability, T/C [28]: 124%
viability, T/C [29]: 71.9%
viability, T/C [30]: 88%
viability, T/C [31]: 88.3%
viability, T/C [32]: 88.5%
viability, T/C [33]: 70.1%
viability, T/C [34]: 72.9%
viability, T/C [35]: 40.1%

Structure (SMILES): CC(C)CC(NC(=O)C(Cc1ccccc1)NC(=O)c1cnccn1)B(O)O (centres undefined) + NC1CC1c1ccc(-c2cccc(O)c2)cc1
IC50 [1]: < 0.316 nM
IC50 [2]: < 0.316 nM
IC50 [3]: < 0.316 nM
IC50 [4]: < 0.316 nM
IC50 [5]: < 0.316 nM
viability, T/C (second compound 0.1 µM, first compound 0.000316 µM): 18.7%
viability, T/C (second compound 0.1 µM, first compound 0.001 µM): 1.21%
viability, T/C (second compound 0.1 µM, first compound 0.00316 µM): 7.48%
viability, T/C (second compound 0.1 µM, first compound 0.01 µM): 0.02%
viability, T/C [6]: 0.02%
viability, T/C [7]: 0.09%
viability, T/C (second compound 0.316 µM, first compound 0.000316 µM): 19%
viability, T/C (second compound 0.316 µM, first compound 0.001 µM): 0.69%
viability, T/C (second compound 0.316 µM, first compound 0.00316 µM): 0.05%
viability, T/C (second compound 0.316 µM, first compound 0.01 µM): 0.01%
viability, T/C [12]: 0.01%
viability, T/C [13]: 0.08%
viability, T/C (second compound 1 µM, first compound 0.000316 µM): 18.5%
viability, T/C (second compound 1 µM, first compound 0.001 µM): 0.65%
viability, T/C (second compound 1 µM, first compound 0.00316 µM): 0.02%
viability, T/C (second compound 1 µM, first compound 0.01 µM): 0.01%
viability, T/C [18]: 0.01%
viability, T/C [19]: 0.09%
viability, T/C (second compound 3.16 µM, first compound 0.000316 µM): 15.5%
viability, T/C (second compound 3.16 µM, first compound 0.001 µM): 0.58%
viability, T/C (second compound 3.16 µM, first compound 0.00316 µM): 0.16%
viability, T/C (second compound 3.16 µM, first compound 0.01 µM): 0.01%
viability, T/C [24]: 0.02%
viability, T/C [25]: 0.1%
viability, T/C (second compound 10 µM, first compound 0.000316 µM): 11.2%
viability, T/C (second compound 10 µM, first compound 0.001 µM): 0.27%
viability, T/C (second compound 10 µM, first compound 0.00316 µM): 0.11%
viability, T/C (second compound 10 µM, first compound 0.01 µM): 0.12%
viability, T/C [30]: 0.14%
viability, T/C [31]: 0.14%

IC50 (curve of compound): 50.5 nM and 47 nM
Structure (SMILES): COc1cc(C2c3cc4c(cc3C(OC3OC5COC(C)OC5C(O)C3O)C3COC(=O)C23)OCO4)cc(OC)c1O (centres undefined)
viability, T/C (compound 0.00949 µM): 86.4% and 69.3%
viability, T/C (compound 0.03 µM): 64.5% and 70.5%
viability, T/C (compound 0.0949 µM): 32.7% and 18.8%
viability, T/C (compound 0.3 µM): 10.8% and 4.99%
viability, T/C (compound 0.949 µM): 6.14% and 3.49%
viability, T/C (compound 3 µM): 7.43% and 2.68%
